Reference: ChEMBL document CHEMBL5113528 (J Med Chem, 2022)

What was measured:
[1] = biological target: T1, N-terminal Xaa-Pro-Lys N-methyltransferase 1 (Homo sapiens, UniProt Q9BV86); assay: Inhibition of full length His-NTMT1 (1 to 222 residues) (unknown origin) expressed in Escherichia coli BL21 (DE3) assessed as SAH production by Mtase-glo luminescence assay
T1 sequence (Q9BV86 whole entry): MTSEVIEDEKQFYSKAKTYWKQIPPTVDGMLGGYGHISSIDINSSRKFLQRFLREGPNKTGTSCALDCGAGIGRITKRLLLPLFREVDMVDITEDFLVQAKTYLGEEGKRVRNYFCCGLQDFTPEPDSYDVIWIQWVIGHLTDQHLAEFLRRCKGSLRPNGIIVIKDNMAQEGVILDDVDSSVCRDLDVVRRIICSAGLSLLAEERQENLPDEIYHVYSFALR

[2] = biological target: T1, N-terminal Xaa-Pro-Lys N-methyltransferase 1
Description: Binding affinity to NTMT1 (unknown origin) assessed as dissociation constant in presence of SAM by isothermal titration calorimetry analysis

[3] = biological target: T1, N-terminal Xaa-Pro-Lys N-methyltransferase 1; remark: listed apart in the source
Description: Binding affinity to NTMT1 (unknown origin)assessed as dissociation constant in absence of SAM by isothermal titration calorimetry analysis

[4] = biological target: T1, N-terminal Xaa-Pro-Lys N-methyltransferase 1; assay: Inhibition of full length NTMT1 (1 to 222 residues) (unknown origin) expressed in Escherichia coli BL21 (DE3) using GPKRIA as substrate preincubated for 10 mins followed by substrate addition measured after 15 mins by microplate reader method

Row | Compound | IC50 [4] | further results
1 | C/N=c1\nc(-c2ccccc2)n(-c2ccccc2)s1 |  | IC50 [1]: 460 nM
2 | CC(C)(NC(=O)O[C@@H]1CN2CCC1CC2)c1csc(-c2ccc(F)cc2)n1 |  | Kd [2]: 32.5 nM; Kd [3]: 160 nM
3 | CC(C)(NC(=O)O[C@@H]1CN2CCC1CC2)c1csc(-c2ccc(CCC(=O)O)cc2)n1 | > 100000 nM | 
4 | CC(C)(NC(=O)O[C@@H]1CN2CCC1CC2)c1csc(-c2ccccc2)n1 | 2700 nM | 
5 | Cc1nc(C(C)(C)NC(=O)O[C@@H]2CN3CCC2CC3)cs1 | > 100000 nM | 
6 | CC(C)(NC(=O)OC1CCCCC1)c1csc(-c2ccc(F)cc2)n1 | > 100000 nM | 
7 | CC(C)(NC(=O)O[C@@H]1CN2CCC1CC2)c1csc(-c2ccc(Br)cc2)n1 | 1500 nM | 
8 | CC(C)OC(=O)NC(C)(C)c1csc(-c2ccc(F)cc2)n1 | > 100000 nM | 
9 | CC(C)(NC(=O)O[C@@H]1CN2CCC1CC2)c1csc(-c2ccc(/C=C/C(=O)O)cc2)n1 | > 100000 nM | 
10 | Cc1ccc(-c2nc(C(C)(C)NC(=O)O[C@@H]3CN4CCC3CC4)cs2)cc1 | 1700 nM | 
